Measurements: patent US12139472B2, “Inhibitors of advanced glycation end products” (priority 2019, dated 2024)
Values joined by “and” are separate entries in the source; they are usually repeats but may differ in a detail not shown here. Equal values may be shown once.

Tests used:
[1] = Pharmacokinetic study for PTG-630 (IV and PO): plasma, whole blood, tissues, urine; format: in vivo, Sprague Dawley rats; conditions: for PTG-4997 (metabolite) concentration: Table 2, for PTG-4997 (metabolite) after PTG-630 PO 100 mg/kg
Experimental: The samples were analyzed in two batches with standards and QCs prepared on rat plasma and rat urine. Analyst® 1.6 (SCIEX) software was used for statistical analysis of bioanalytical data. […] Dose samples collected at 0.083 h-6 h postdose were diluted 4 times with SD rat plasma prior to plating. Twenty-four (24) hours plasma samples were assayed without dilution. […] Two sciatic nerve samples were excluded from analysis, due to the insufficient sample size. […] The 12 non-cannulated animals were arbitrarily assigned to groups upon arrival and housed together throughout the experiment. The animals were acclimated to their designated housing for at least 24 hours before the first day of dosing. […] Blood samples were collected via cannula from IV dosed rats or by cardiac stick from PO dosed rats at the specified time points for sampling pharmacokinetics. Blood was collected into K2EDTA tubes. Tubes were mixed gently after blood collection, chilled and centrifuged at 3000 rpm, 4° C. within 30 minutes upon collection. The samples were centrifuged at 4° C. and the resultant plasma separated. […] Urine from Group 1 was collected via polycarbonate tubes from rats placed in drug metabolism cages. Urine was maintained and room temperature through the collection period.

CYP3A = format: in vitro ADME, human; conditions: HLM
Excerpt: Compound 5 (PTG-630 free base) and 7 additional compounds for CYP3A P450 inhibition.
Imidazole (and benzimidazole) containing drugs are ubiquitous in pharmacological practice; however, drug-drug interactions (DDI) have been observed with some imidazole-containing classes, such as the antifungal azoles typified by ketoconazole. It is believed that the imidazole moiety accounts for their ability to inhibit CYP3A, the major DDI enzyme that metabolizes up to 50% of common drugs. The compounds of the disclosure incorporate an imidazole moiety attached to a pyridine ring via the imidazole C-2. They all share an imidazo-hydroxypyridine theme that can bind redox metal ions, while differing in the nature of the X side-chain. The potential of the compounds of the disclosure for DDI was evaluated by screening their inhibition of CYP3A.
Two studies were conducted in human liver microsomes (HLM). Lead candidate PTG-630 was tested using the Eurofins G232 panel (Drug Metab Dispos. 2001 January; 29(1):23-9), where inhibition was measured against seven CYP enzymes; CYP3A4 was tested using two different substrates, midazolam and testosterone. In a second study, inhibition of CYP3A4 (midazolam substrate only) was compared for 8 compounds of interest. The test protocol involved one-point measurements in duplicate, where inhibition was measured at a fixed 10 μM concentration of candidate inhibitors. In all cases, the substrate for each CYP enzyme was at a concentration equal to its specific Km value that was independently obtained from an 8-point dose-response study. Based on the observed value for percent inhibition for each test compound, we calculated of an IC50 assuming a competitive mode of inhibition. If percent inhibition for an inhibitor at a concentration of [I] is denoted by P, then: IC50=[I]*(100−P)/P In the single-point assay, [I] is 10 μM. If measured inhibition is 10%, then IC50=10*(100-10)/10=90 μM. […] As discussed in Lin et al. (J Pharm Sci. 2007 September; 96(9):2485-93; doi: 10.1002/jps.20884), CYP inhibition is broadly interpreted as being “potent” if IC50<1 μM, “moderate” if 1 μM<IC50<10 μM, and “weak” if IC50>10 μM.

Cc1ncc(CO)c(-c2ncc[nH]2)c1O [PTG-4997]
PTG-4997 (metabolite) concentration ([1]; muscle, 2 h postdose, Mean): <BLQ | PTG-4997 (metabolite) concentration ([1]; muscle, 2 h postdose, individual animals): <BLQ | PTG-4997 (metabolite) concentration ([1]; muscle, 4 h postdose, Mean): 54 ng/mL | PTG-4997 (metabolite) concentration ([1]; muscle, 4 h postdose, individual animals, 100 mg/kg): 108 ng/mL and <BLQ | PTG-4997 (metabolite) concentration ([1]; muscle, 6 h postdose, Mean): 127.5 ng/mL | PTG-4997 (metabolite) concentration ([1]; muscle, 6 h postdose, individual animals, 100 mg/kg): 108 ng/mL and 147 ng/mL | PTG-4997 (metabolite) concentration ([1]; muscle, 24 h postdose, Mean): <BLQ | PTG-4997 (metabolite) concentration ([1]; muscle, 24 h postdose, individual animals): <BLQ | PTG-4997 (metabolite) concentration ([1]; plasma, 0.5 h postdose, Mean): <BLQ | PTG-4997 (metabolite) concentration ([1]; plasma, 0.5 h postdose, individual animals): <BLQ | PTG-4997 (metabolite) concentration ([1]; plasma, 1 h postdose, Mean): <BLQ | PTG-4997 (metabolite) concentration ([1]; plasma, 1 h postdose, individual animals): <BLQ | PTG-4997 (metabolite) concentration ([1]; plasma, 2 h postdose, Mean): <BLQ | PTG-4997 (metabolite) concentration ([1]; plasma, 2 h postdose, individual animals): <BLQ | PTG-4997 (metabolite) concentration ([1]; plasma, 4 h postdose, Mean): <BLQ | PTG-4997 (metabolite) concentration ([1]; plasma, 4 h postdose, individual animals): <BLQ | PTG-4997 (metabolite) concentration ([1]; plasma, 6 h postdose, Mean): <BLQ | PTG-4997 (metabolite) concentration ([1]; plasma, 6 h postdose, individual animals): <BLQ | PTG-4997 (metabolite) concentration ([1]; plasma, 24 h postdose, Mean): <BLQ | PTG-4997 (metabolite) concentration ([1]; plasma, 24 h postdose, individual animals): <BLQ | PTG-4997 (metabolite) concentration ([1]; sciatic nerve, 0.5 h postdose, Mean): <BLQ | PTG-4997 (metabolite) concentration ([1]; sciatic nerve, 0.5 h postdose, individual animals): <BLQ | PTG-4997 (metabolite) concentration ([1]; sciatic nerve, 1 h postdose, Mean): <BLQ | PTG-4997 (metabolite) concentration ([1]; sciatic nerve, 1 h postdose, individual animals): <BLQ | PTG-4997 (metabolite) concentration ([1]; sciatic nerve, 2 h postdose, Mean): <BLQ | PTG-4997 (metabolite) concentration ([1]; sciatic nerve, 2 h postdose, individual animals): <BLQ | PTG-4997 (metabolite) concentration ([1]; sciatic nerve, 4 h postdose, Mean): <BLQ | PTG-4997 (metabolite) concentration ([1]; sciatic nerve, 4 h postdose, individual animals): <BLQ | PTG-4997 (metabolite) concentration ([1]; sciatic nerve, 6 h postdose, Mean): <BLQ | PTG-4997 (metabolite) concentration ([1]; sciatic nerve, 6 h postdose, individual animals): <BLQ | PTG-4997 (metabolite) concentration ([1]; sciatic nerve, 24 h postdose, Mean): <BLQ | PTG-4997 (metabolite) concentration ([1]; sciatic nerve, 24 h postdose, individual animals): <BLQ | AUC last in kidney, times lower than PTG-630 in kidneys ([1]; after PTG-630 PO): 3 times | detection in plasma following IV dosing ([1]; metabolite PTG-4997 after PTG-630 IV): only detected in the plasma of single animal | presence in kidney ([1]; metabolite PTG-4997 after PTG-630 PO): present in steady level for 24 hours | presence in muscle samples ([1]; metabolite PTG-4997 after PTG-630 PO, 4-6 hours postdose): intermittently present | detection in plasma following PO administration ([1]; metabolite PTG-4997 after PTG-630 PO, any timepoint): not detectable | presence in liver samples ([1]; metabolite PTG-4997 after PTG-630 PO, any timepoint through 24 hours postdose): undetectable | average amount recovered from each animal ([1]; urine, 24 hours, after PTG-630 IV): 146 ng | excretion rate, times lower than PTG-630 ([1]; urine, after PTG-630 IV): 34 times | Estimated IC50 (CYP3A; midazolam, from one-point % inhibition at 10 μM, IC50=[I]*(100−P)/P): — None | P % inhib (CYP3A; substrate midazolam at Km, Inhib Conc. 1.0E−05 M): −4.9%
